Data: PMC11005723, “Development of Complementary Photo‐arginine/lysine to Promote Discovery of Arg/Lys hPTMs Interactomes” (Advanced Science, 2024)

System: HEK293T nuclear lysates
Test: SILAC‐based pull‐down proteomics H4K5me2/H4K5 (probes 7/5)
Type: binding, human
Settings: for F6 log2 (H4K5me2/H4K5): run F6; for E6 log2 (H4K5me2/H4K5): run E6

probe 7: H4K5me2 peptide probe with photo‐arginine R(dz) and K(biotin) (SGRGKGGKGLGKGGK; photo-arginine R(dz) at 3; dimethyl-lysine at 5; K(biotin) at 15)
F6 log2 (H4K5me2/H4K5) (protein Q5SY16 NOL9): 0.298 | E6 log2 (H4K5me2/H4K5) (protein Q5UIP0 RIF1): 0.1193 | F6 log2 (H4K5me2/H4K5) (protein Q5UIP0 RIF1): -0.04241 | E6 log2 (H4K5me2/H4K5) (protein Q5VZL5 ZMYM4): 0.09551 | F6 log2 (H4K5me2/H4K5) (protein Q5VZL5 ZMYM4): -0.04431 | E6 log2 (H4K5me2/H4K5) (protein Q8NFW8 CMAS): 0.141 | F6 log2 (H4K5me2/H4K5) (protein Q8NFW8 CMAS): 0.05465 | E6 log2 (H4K5me2/H4K5) (protein Q8WYA6 CTNNBL1): 0.1516 | F6 log2 (H4K5me2/H4K5) (protein Q8WYA6 CTNNBL1): 0.456 | E6 log2 (H4K5me2/H4K5) (protein Q9BRX2 PELO): 0.1716 | F6 log2 (H4K5me2/H4K5) (protein Q9BRX2 PELO): 0.4162 | E6 log2 (H4K5me2/H4K5) (protein Q9BUF5 TUBB6): 0.1331 | F6 log2 (H4K5me2/H4K5) (protein Q9BUF5 TUBB6): -0.5148 | E6 log2 (H4K5me2/H4K5) (protein Q9BVA1 TUBB2B): 0.166 | F6 log2 (H4K5me2/H4K5) (protein Q9BVA1 TUBB2B): -0.2469 | E6 log2 (H4K5me2/H4K5) (protein Q9BVJ6 UTP14A): 0.05903 | F6 log2 (H4K5me2/H4K5) (protein Q9BVJ6 UTP14A): -0.461 | E6 log2 (H4K5me2/H4K5) (protein Q9BW71 HIRIP3): 0.0877 | F6 log2 (H4K5me2/H4K5) (protein Q9BW71 HIRIP3): -0.01781 | E6 log2 (H4K5me2/H4K5) (protein Q9BXP5 SRRT): 0.141 | F6 log2 (H4K5me2/H4K5) (protein Q9BXP5 SRRT): 0.1118 | E6 log2 (H4K5me2/H4K5) (protein Q9H4L7 SMARCAD1): 0.1459 | F6 log2 (H4K5me2/H4K5) (protein Q9H4L7 SMARCAD1): 0.07323 | E6 log2 (H4K5me2/H4K5) (protein Q9H5H4 ZNF768): 0.1121 | F6 log2 (H4K5me2/H4K5) (protein Q9H5H4 ZNF768): 0.2152 | E6 log2 (H4K5me2/H4K5) (protein Q9NPJ6 MED4): 0.1455 | F6 log2 (H4K5me2/H4K5) (protein Q9NPJ6 MED4): 0.1113 | E6 log2 (H4K5me2/H4K5) (protein Q9NRL2 BAZ1A): 0.163 | F6 log2 (H4K5me2/H4K5) (protein Q9NRL2 BAZ1A): 0.1532 | E6 log2 (H4K5me2/H4K5) (protein Q9NX58 LYAR): 0.1556 | F6 log2 (H4K5me2/H4K5) (protein Q9NX58 LYAR): 0.3557 | E6 log2 (H4K5me2/H4K5) (protein Q9P013 CWC15): 0.1308 | F6 log2 (H4K5me2/H4K5) (protein Q9P013 CWC15): 0.1373 | E6 log2 (H4K5me2/H4K5) (protein Q9P258 RCC2): 0.1054 | F6 log2 (H4K5me2/H4K5) (protein Q9P258 RCC2): 0.04172 | E6 log2 (H4K5me2/H4K5) (protein Q9UFW8 CGGBP1): 0.1502 | F6 log2 (H4K5me2/H4K5) (protein Q9UFW8 CGGBP1): 0.1918 | E6 log2 (H4K5me2/H4K5) (protein Q9ULV4 CORO1C): 0.1506 | F6 log2 (H4K5me2/H4K5) (protein Q9ULV4 CORO1C): 0.2392 | E6 log2 (H4K5me2/H4K5) (protein Q9Y5Q8 GTF3C5): 0.07771 | F6 log2 (H4K5me2/H4K5) (protein Q9Y5Q8 GTF3C5): -0.06295 | E6 log2 (H4K5me2/H4K5) (protein Q9Y5Q9 GTF3C3): 0.06434 | F6 log2 (H4K5me2/H4K5) (protein Q9Y5Q9 GTF3C3): 0.04559 | E6 log2 (H4K5me2/H4K5) (protein Q9Y6G9 DYNC1LI1): 0.06739 | F6 log2 (H4K5me2/H4K5) (protein Q9Y6G9 DYNC1LI1): 0.07842 | E6 log2 (H4K5me2/H4K5) (protein Q9Y383 LUC7L2): 0.1112 | F6 log2 (H4K5me2/H4K5) (protein Q9Y383 LUC7L2): 0.1004 | E6 log2 (H4K5me2/H4K5) (protein Q69YN4 KIAA1429): 0.07633 | F6 log2 (H4K5me2/H4K5) (protein Q69YN4 KIAA1429): 1.095 | E6 log2 (H4K5me2/H4K5) (protein Q86UV5 USP48): 0.08539 | F6 log2 (H4K5me2/H4K5) (protein Q86UV5 USP48): 0.1516 | E6 log2 (H4K5me2/H4K5) (protein Q86VP6 CAND1): 0.1189 | F6 log2 (H4K5me2/H4K5) (protein Q86VP6 CAND1): 0.1916 | E6 log2 (H4K5me2/H4K5) (protein Q96I24 FUBP3): 0.09267 | F6 log2 (H4K5me2/H4K5) (protein Q96I24 FUBP3): 0.003553 | E6 log2 (H4K5me2/H4K5) (protein Q96RL1 UIMC1): 0.1095 | F6 log2 (H4K5me2/H4K5) (protein Q96RL1 UIMC1): 0.3246 | E6 log2 (H4K5me2/H4K5) (protein Q96SI9 STRBP): 0.1111 | F6 log2 (H4K5me2/H4K5) (protein Q96SI9 STRBP): -0.1086 | E6 log2 (H4K5me2/H4K5) (protein Q00839 HNRNPU): 0.1593 | F6 log2 (H4K5me2/H4K5) (protein Q00839 HNRNPU): 0.1015 | E6 log2 (H4K5me2/H4K5) (protein Q06265 EXOSC9): 0.08559 | F6 log2 (H4K5me2/H4K5) (protein Q06265 EXOSC9): 0.2199 | E6 log2 (H4K5me2/H4K5) (protein Q08211 DHX9): 0.1119 | F6 log2 (H4K5me2/H4K5) (protein Q08211 DHX9): 0.3522 | E6 log2 (H4K5me2/H4K5) (protein Q12888 TP53BP1): 0.1736 | F6 log2 (H4K5me2/H4K5) (protein Q12888 TP53BP1): 0.06404 | E6 log2 (H4K5me2/H4K5) (protein Q13409 DYNC1I2): 0.06369 | F6 log2 (H4K5me2/H4K5) (protein Q13409 DYNC1I2): -0.3262 | E6 log2 (H4K5me2/H4K5) (protein Q13838 DDX39B): 0.1273 | F6 log2 (H4K5me2/H4K5) (protein Q13838 DDX39B): 0.2575 | E6 log2 (H4K5me2/H4K5) (protein Q14247 CTTN): 0.1014 | F6 log2 (H4K5me2/H4K5) (protein Q14247 CTTN): -0.09702 | E6 log2 (H4K5me2/H4K5) (protein Q14498 RBM39): 0.177 | F6 log2 (H4K5me2/H4K5) (protein Q14498 RBM39): 0.352 | E6 log2 (H4K5me2/H4K5) (protein Q14683 SMC1A): 0.1403 | F6 log2 (H4K5me2/H4K5) (protein Q14683 SMC1A): 0.1731 | E6 log2 (H4K5me2/H4K5) (protein Q15007 WTAP): 0.1397 | F6 log2 (H4K5me2/H4K5) (protein Q15007 WTAP): 0.4766 | E6 log2 (H4K5me2/H4K5) (protein Q15029 EFTUD2): 0.07001 | F6 log2 (H4K5me2/H4K5) (protein Q15029 EFTUD2): 0.00906 | E6 log2 (H4K5me2/H4K5) (protein Q15181 PPA1): 0.1337 | F6 log2 (H4K5me2/H4K5) (protein Q15181 PPA1): 0.2844 | E6 log2 (H4K5me2/H4K5) (protein Q15366 PCBP2): 0.119 | F6 log2 (H4K5me2/H4K5) (protein Q15366 PCBP2): 0.02194 | E6 log2 (H4K5me2/H4K5) (protein Q15459 SF3A1): 0.09759 | F6 log2 (H4K5me2/H4K5) (protein Q15459 SF3A1): -0.03717 | E6 log2 (H4K5me2/H4K5) (protein Q15637 SF1): 0.06831 | F6 log2 (H4K5me2/H4K5) (protein Q15637 SF1): -0.04609 | E6 log2 (H4K5me2/H4K5) (protein Q15654 TRIP6): 0.1136 | F6 log2 (H4K5me2/H4K5) (protein Q15654 TRIP6): 0.7606 | E6 log2 (H4K5me2/H4K5) (protein Q16543 CDC37): 0.09946 | F6 log2 (H4K5me2/H4K5) (protein Q16543 CDC37): -0.01218 | E6 log2 (H4K5me2/H4K5) (protein Q92769 HDAC2): 0.1172 | F6 log2 (H4K5me2/H4K5) (protein Q92769 HDAC2): 0.07863 | E6 log2 (H4K5me2/H4K5) (protein Q92785 DPF2): 0.1557 | F6 log2 (H4K5me2/H4K5) (protein Q92785 DPF2): 0.235 | E6 log2 (H4K5me2/H4K5) (protein Q92945 KHSRP): 0.0526 | F6 log2 (H4K5me2/H4K5) (protein Q92945 KHSRP): 0.2777 | E6 log2 (H4K5me2/H4K5) (protein Q99459 CDC5L): 0.1274 | F6 log2 (H4K5me2/H4K5) (protein Q99459 CDC5L): -0.0666
